Where two headings read alike, the source gives them in different places.
How the values were obtained:
hCE1 = biological target: T1, hCE1 (Homo sapiens, UniProt P23141); assay: hCE1 inhibition assay, DME hydrolysis in human liver microsomes; type: biochemical; design: tissue Celsis (Shanghai, China); host or cells: human liver microsomes (HLM);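 further: carboxylesterase inhibition read out as probe hydrolysis, with DME serving as hCE1 substrate and DDAB as hCE2 substrate, in DMSO below 2% (V/V)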
T1 sequence (P23141 18-567): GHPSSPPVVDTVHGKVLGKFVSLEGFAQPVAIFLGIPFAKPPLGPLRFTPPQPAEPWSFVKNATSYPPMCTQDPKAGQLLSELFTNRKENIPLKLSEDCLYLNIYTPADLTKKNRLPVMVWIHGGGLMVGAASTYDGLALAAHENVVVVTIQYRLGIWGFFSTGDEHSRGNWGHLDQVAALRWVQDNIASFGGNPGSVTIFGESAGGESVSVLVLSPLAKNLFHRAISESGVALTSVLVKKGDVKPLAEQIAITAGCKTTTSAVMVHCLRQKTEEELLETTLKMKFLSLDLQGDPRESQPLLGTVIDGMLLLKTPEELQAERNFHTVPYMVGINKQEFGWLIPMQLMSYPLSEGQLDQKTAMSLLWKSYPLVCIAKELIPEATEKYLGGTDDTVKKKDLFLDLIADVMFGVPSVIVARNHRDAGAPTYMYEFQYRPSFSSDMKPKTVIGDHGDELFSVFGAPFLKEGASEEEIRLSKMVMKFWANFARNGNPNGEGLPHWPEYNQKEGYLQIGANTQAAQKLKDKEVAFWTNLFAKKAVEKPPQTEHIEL
Description: (§1) All fluorescence-based assays were performed on Synergy H^1 Hybrid Multi-Mode Microplate Reader (BioTek, USA).
(§2) The inhibitory effects toward CEs were assayed using DME and DDAB as the specific probe substrates for hCE1 and hCE2, respectively. […] Control incubations without BNPP were also performed. After incubation, ice-cold acetonitrile (equal volume of incubation mixture, 200 μL) was added to terminate the reaction. The mixture was then centrifuged at 20,000 g for 20 min at 4°C. All these compounds dissolved in DMSO, and the final concentration of DMSO was <2% (V/V). Aliquots of the supernatant were then taken for further microplate reader analyses. […] First, each of the potential esterase inhibitors was pre-incubated with HLM at 37°C for 10 min with shaking in microplate reader. Then DME was added to start the reaction. After incubation at 37°C for 10 min in a shaking bath, LDR (equal volume of incubation mixture, 50 μL) was added to terminate the reaction, and luminescence measurements were conducted as described above.

hCE2 = biological target: T2, hCE2 (Homo sapiens, UniProt O00748); assay: hCE2 inhibition assay, DDAB hydrolysis in human liver microsomes; type: biochemical
T2 construct: tissue Celsis (Shanghai, China); host or cells: human liver microsomes (HLM)
T2 sequence (O00748 27-559): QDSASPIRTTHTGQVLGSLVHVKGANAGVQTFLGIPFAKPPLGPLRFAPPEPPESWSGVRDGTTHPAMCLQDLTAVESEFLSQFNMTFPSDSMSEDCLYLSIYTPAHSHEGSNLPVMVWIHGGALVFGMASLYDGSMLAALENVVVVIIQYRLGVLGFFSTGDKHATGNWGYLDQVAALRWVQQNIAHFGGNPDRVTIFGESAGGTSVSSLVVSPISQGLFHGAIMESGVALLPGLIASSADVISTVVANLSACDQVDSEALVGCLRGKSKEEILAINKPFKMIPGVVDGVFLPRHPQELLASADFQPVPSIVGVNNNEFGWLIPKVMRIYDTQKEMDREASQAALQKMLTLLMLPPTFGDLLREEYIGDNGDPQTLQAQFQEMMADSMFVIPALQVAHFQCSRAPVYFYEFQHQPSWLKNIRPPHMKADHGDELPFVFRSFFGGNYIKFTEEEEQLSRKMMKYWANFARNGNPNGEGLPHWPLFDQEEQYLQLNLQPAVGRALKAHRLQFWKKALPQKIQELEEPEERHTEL
Description: as §1, §2

[1] = DME as probe substrate, HLM, averages of at least three experiments, read-out: IC50 (hCE1)
[2] = log of the experimental IC50 in μM, used for 3D-QSAR
[3] = DDAB as probe substrate, HLM, averages of at least three experiments, read-out: IC50 (hCE2)

| Compound | IC50 (hCE1; [1]) [µM] | Observed Log(IC50_hCE1) (hCE1; [2]) [μM] | IC50 (hCE2; [3]) [µM] | further results |
| --- | --- | --- | --- | --- |
| CC1(C)CC[C@]2(C(=O)O)CC[C@]3(C)C(=CC[C@@H]4[C@@]5(C)CC[C@H](O)C(C)(C)[C@@H]5CC[C@]43C)[C@@H]2C1 [Compound 1, oleanolic acid] | 0.28 | -0.5528 |  |  |
| C[C@H]1[C@H](C)CC[C@]2(C(=O)O)CC[C@]3(C)C(=CC[C@@H]4[C@@]5(C)CC[C@H](O)C(C)(C)[C@@H]5CC[C@]43C)[C@H]12 [Compound 2, ursolic acid] | 0.24 | -0.6198 |  |  |
| CC1(C)CCC2(C(=O)O)C(O)CC3(C)C(=CCC4C5(C)CC(O)C(O)C(C)(CO)C5CCC43C)C2C1 (stereo not drawn) [Compound 3, polygalacic acid] | 64.7 | 1.811 | > 100 |  |
| CC1(C)[C@@H](O)CC[C@]2(C)[C@H]3C(=O)C=C4[C@@H]5C[C@@](C)(C(=O)O)CC[C@]5(C)CC[C@@]4(C)[C@]3(C)CC[C@@H]12 [Compound 4, glycyrrhetic acid] | 13 | 1.1126 |  |  |
| C[C@H]1[C@H](C)CC[C@]2(C)CC[C@]3(C)C(=CC[C@@H]4[C@@]5(C)CC[C@@H](O)[C@](C)(C(=O)O)[C@@H]5CC[C@]43C)[C@H]12 [Compound 5, β-boswellic acid] | > 400 |  |  |  |
| C[C@H]1[C@H](C)CC[C@]2(C)CC[C@]3(C)C(=CC(=O)[C@@H]4[C@@]5(C)CC[C@@H](O)[C@](C)(C(=O)O)[C@@H]5CC[C@]43C)[C@H]12 [Compound 6, 11-keto-β-boswellic acid] | 124 | 2.092 |  |  |
| CC1=C(O)C(=O)C=C2C1=CC=C1[C@@]2(C)CC[C@@]2(C)[C@@H]3C[C@](C)(C(=O)O)CC[C@]3(C)CC[C@]12C [Compound 7, celastrol] | 4.43 | 0.6464 |  |  |
| CC(C)=CCCC(C)(O)C1CCC2(C)C1C(O)CC1C3(C)CCC(O)C(C)(C)C3CCC12C (stereo not drawn) [Compound 8] | > 500 |  |  |  |
| CC(C)=CCCC(C)(O)C1CCC2(C)C1C(O)CC1C3(C)CCC(O)C(C)(C)C3C(O)CC12C (stereo not drawn) [Compound 9] | > 500 |  |  |  |
| C=C(CCC(C(=O)O)C1C(O)CC2(C)C3=C(CCC12C)C1(C)CCC(OC(C)=O)C(C)(C)C1CC3)C(C)C (stereo not drawn) [Compound 10] | 21.7 | 1.337 |  |  |
| C=C(CCC(C(=O)O)C1C(O)CC2(C)C3=CCC4C(C)(CCC(OC(C)=O)C4(C)C)C3=CCC12C)C(C)C (stereo not drawn) [Compound 11] | 27.6 | 1.441 | > 100 |  |
| C=C(CCC(C(=O)O)C1C(O)CC2(C)C3=CCC4C(C)(C)C(=O)CCC4(C)C3=CCC12C)C(C)C (stereo not drawn) [Compound 12] | 58.6 | 1.7679 | > 100 |  |
| C[C@H](CC(=O)C[C@@H](C)[C@H]1C[C@H](O)[C@@]2(C)C3=C(C(=O)C[C@]12C)[C@@]1(C)CCC(=O)C(C)(C)[C@@H]1C[C@@H]3O)C(=O)O [Compound 13] |  |  |  | IC50 (hCE2): > 100 µM; IC50 (hCE1): > 400 µM |
| C[C@H](CC(=O)C[C@@H](C)[C@H]1CC(=O)[C@@]2(C)C3=C(C(=O)C[C@]12C)[C@@]1(C)CC[C@H](O)C(C)(C)[C@@H]1C[C@@H]3O)C(=O)O [Compound 14] | > 400 |  | > 100 |  |
| CC1(C)CCC2(C(=O)O)CCC3(C)C(=CCC4C5(C)CCC(=O)C(C)(C)C5CCC43C)C2C1 (stereo not drawn) [Compound 15, 3-oxo-olean-12-en-28-oic acid] | 0.13 |  | 16.1 | Observed Log(IC50_hCE1) (hCE1): -0.8861 μM; Selectivity (hCE1): 123.07 |
| CC1(C)CCC2(CO)CCC3(C)C(=CCC4C5(C)CCC(O)C(C)(C)C5CCC43C)C2C1 (stereo not drawn) [Compound 16, 3β-olean-12-ene-3,28-diol] | 2.41 | 0.382 | 6.12 |  |
| COC(=O)C12CCC(C)(C)CC1C1=CCC3C4(C)CCC(O)C(C)(C)C4CCC3(C)C1(C)CC2 (stereo not drawn) [Compound 17, 3β-hydroxy-olean-12-en-28-oic acidmethyl ester] | 6.23 | 0.7945 | 5.7 |  |
| CC1(C)CCC2(C(N)=O)CCC3(C)C(=CCC4C5(C)CCC(O)C(C)(C)C5CCC43C)C2C1 (stereo not drawn) [Compound 18, 3β-hydroxy-olean-12-en-28-amide] | 3.21 | 0.5065 | 4.11 |  |
| CC(=O)OC1CCC2(C)C(CCC3(C)C2CC=C2C4CC(C)(C)CCC4(C(=O)O)CCC23C)C1(C)C (stereo not drawn) [Compound 19, 3β-O-acetyl-olean-12-en-28-oic acid] | 0.19 | -0.7212 | 10.2 |  |
| CC1(C)CCC2(C(=O)O)CCC3(C)C(=CCC4C5(C)CCC(OC(=O)CCC(=O)O)C(C)(C)C5CCC43C)C2C1 (stereo not drawn) [Compound 20, 3β-O-(β-carboxypropionyl)-olean-12-en-28-oic acid] | 0.017 | -1.77 | 56 | selectivity over hCE2 (hCE1; hCE1 versus hCE2, values of the text): 3296 fold |
| CC1CCC2(C(=O)O)CCC3(C)C(=CCC4C5(C)CCC(=O)C(C)(C)C5CCC43C)C2C1C (stereo not drawn) [Compound 21, 3-oxo-urs-12-en-28-oic acid] | 0.037 | -1.4318 | 9.56 |  |
| COC(=O)C12CCC(C)C(C)C1C1=CCC3C4(C)CCC(O)C(C)(C)C4CCC3(C)C1(C)CC2 (stereo not drawn) [Compound 23, 3β-hydroxy-urs-12-en-28-oic acid methyl ester] | 1.83 | 0.2625 | 11.9 |  |
| COC(=O)C12CCC(C)C(C)C1C1=CCC3C4(C)CCC(=O)C(C)(C)C4CCC3(C)C1(C)CC2 (stereo not drawn) [Compound 24, 3-oxo-urs-12-en-28-oic acid methyl ester] | 0.9 | -0.04576 | > 100 |  |
| COC(=O)C12CCC(C)C(C)C1C1=CC(=O)C3C4(C)CCC(=O)C(C)(C)C4CCC3(C)C1(C)CC2 (stereo not drawn) [Compound 25, 3,11-dioxo-urs-12-en-28-oic acid methyl ester] | 33.2 | 1.521 | 11.9 |  |
| CC1(C(=O)O)CCC2(C)CCC3(C)C(=CCC4C5(C)CCC(O)C(C)(C)C5CCC43C)C2C1 (stereo not drawn) [Compound 26] |  | 0.9513 |  | IC50 (hCE1; IC50 (hCE1), DME as probe substrate, HLM, averages of at least three experiments): 8.94 µM |
| CC1(C(=O)O)CCC2(C)CCC3(C)C(=CCC4C5(C)CCC(OC(=O)CCC(=O)O)C(C)(C)C5CCC43C)C2C1 (stereo not drawn) [Compound 27, 3β-O-(β-carboxypropionyl)-olean-12-en-30-oic acid] | 6.94 | 0.8414 | 3.16 |  |
| O=[N+]([O-])c1ccc(OP(=O)(O)Oc2ccc([N+](=O)[O-])cc2)cc1 [Compound 28, Bis-p-nitrophenyl phosphate, reference compound] | 0.031 |  |  |  |

Reference: paper PMC5491650, “Structure-Activity Relationships of Pentacyclic Triterpenoids as Potent and Selective Inhibitors against Human Carboxylesterase 1” (Frontiers in Pharmacology, 2017)
